Earlier results in patent US6379294B1, “Process for preparing esterquats” (Akzo Nobel N.V., priority 1999, dated 2002).

Conditions: salts of the tertiary amines as such; from Klomp, Kruka, Reijnhart, IBC Conference 1998

Row | SMILES | Inhibition of the growth of gas hydrates
1 | CCCCN(CCCC)CCCC [tri-n-butyl amine] | inhibited the growth of gas hydrates
2 | CCCCCCCCCCN(CCCC)CCCC [di-n-butyl decyl amine] | inhibited the growth of gas hydrates
